For 26 molecules, IC50 results are on record in patent US20250282785A1, “PYRROLIDINONE DERIVATIVES AS INHIBITORS OF NF KAPPA B INDUCING KINASE” (priority 2022, published 2025).

For test [1], the target named is Recombinant Human NF-Kappab-Inducing Kinase (NIK/MAP3K14) (Homo sapiens, UniProt Q99558). Briefly: Inhibition of auto-phosphorylation of recombinant human NIK/MAP3K14 (AlphaScreen). Type of test: biochemical. The note with it: NIK/MAP3K14 auto-phosphorylation, 5 microM ATP, 1 nM enzyme, 2 h at 25° C.; average of values; read-out: Assay 1 IC50. The method, boiled down:
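GST-tagged NIK (1 nM) auto-phosphorylation with 5 µM ATP in Tris pH 7.5/MgCl2 buffer, 0.7% DMSO, 2 h at 25 °C. Phospho-IKK Ser176/180 antibody detected by AlphaScreen beads. Signal normalized to full-enzyme and no-ATP controls; IC50 from sigmoidal fit of % inhibition vs log concentration.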

For test [2], the system named is p-IKKα levels in L363 (NIK translocated multiple myeloma) cells. Kind of test: Effect of compounds on p-IKKα levels in L363 cells (AlphaLISA SureFire Ultra). The class given is cell-based. The conditions noted are these: Homo sapiens, L-363; L363 cells, BAFF stimulated, MG132, 6 h; average of values; read-out: Assay 2 IC50. Summed up:
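L363 myeloma cells were BAFF-stimulated (250 ng/ml) overnight in DMEM/0.5% BSA, then exposed 6 h at 37° C to compound (11-point 1:3 series, 0.3% DMSO) with BAFF plus 10 uM MG132. p-IKKα (Ser 176/180) was read by AlphaLISA SureFire Ultra in lysates. IC50 came from sigmoidal fits normalized to stimulated and unstimulated controls.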
(In general: In Alpha technology, singlet oxygen from a donor bead excites a nearby acceptor bead.)

Chain of Recombinant Human NF-Kappab-Inducing Kinase (NIK/MAP3K14) (Q99558 whole entry): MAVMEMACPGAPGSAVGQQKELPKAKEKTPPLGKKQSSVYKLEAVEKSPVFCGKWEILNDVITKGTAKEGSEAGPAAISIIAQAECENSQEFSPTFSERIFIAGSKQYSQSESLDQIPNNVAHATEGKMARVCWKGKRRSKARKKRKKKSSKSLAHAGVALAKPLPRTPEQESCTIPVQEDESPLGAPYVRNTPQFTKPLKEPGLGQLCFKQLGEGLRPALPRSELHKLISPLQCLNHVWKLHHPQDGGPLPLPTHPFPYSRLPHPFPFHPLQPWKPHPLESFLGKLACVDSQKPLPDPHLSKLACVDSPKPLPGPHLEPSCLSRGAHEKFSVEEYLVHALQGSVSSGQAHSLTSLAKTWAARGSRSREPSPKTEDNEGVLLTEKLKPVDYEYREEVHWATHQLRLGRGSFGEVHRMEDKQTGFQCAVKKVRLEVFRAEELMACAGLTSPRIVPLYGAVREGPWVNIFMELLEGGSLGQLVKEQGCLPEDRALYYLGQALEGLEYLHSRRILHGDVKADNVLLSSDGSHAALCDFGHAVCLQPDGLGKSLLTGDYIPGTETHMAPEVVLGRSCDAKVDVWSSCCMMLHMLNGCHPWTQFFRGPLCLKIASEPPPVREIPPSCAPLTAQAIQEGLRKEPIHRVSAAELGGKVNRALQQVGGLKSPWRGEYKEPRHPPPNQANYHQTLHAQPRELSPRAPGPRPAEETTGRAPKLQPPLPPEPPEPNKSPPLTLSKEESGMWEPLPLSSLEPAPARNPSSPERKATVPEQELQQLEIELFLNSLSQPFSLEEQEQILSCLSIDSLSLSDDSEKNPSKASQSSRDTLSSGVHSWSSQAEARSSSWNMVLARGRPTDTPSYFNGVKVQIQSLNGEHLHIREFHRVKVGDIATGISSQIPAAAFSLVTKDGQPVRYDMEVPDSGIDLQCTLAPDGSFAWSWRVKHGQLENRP

`CN1CC[C@@](O)(c2cc(-c3cccc(-n4nc(C(=O)O)c5c4CCCC5)c3)no2)C1=O` [Example 95, (R)-1-(3-(5-(3-Hydroxy-1-methyl-2-oxopyrrolidin-3-yl)isoxazol-3-yl)phenyl)-4,5,6,7-tetrahydro-1H-indazole-3-carboxylic acid]: the IC50 in test [1] and in test [2] was above 501 nM throughout.
As for `CN1CC[C@@](O)(c2cc(-c3cccc(-c4ccc(C(N)=O)o4)c3)no2)C1=O` [Example 207, (R)-5-(3-(5-(3-Hydroxy-1-methyl-2-oxopyrrolidin-3-yl)isoxazol-3-yl)phenyl)furan-2-carboxamide], the IC50 is below 100 nM in test [1] and above 501 nM in test [2].
On to `COc1ncc(-c2cccc(-c3cc([C@]4(O)CCN(C)C4=O)on3)c2)c(C(N)=O)n1` [Example 138, (R)-5-(3-(5-(3-Hydroxy-1-methyl-2-oxopyrrolidin-3-yl)isoxazol-3-yl)phenyl)-2-methoxypyrimidine-4-carboxamide], for which the IC50 in test [1] and in test [2] was above 501 nM throughout.
For the molecule `[2H]c1nc(N)c2nc(-c3cccc(-c4cc([C@]5(O)CCN(C)C5=O)nn4C)c3)ccc2n1` (single isomer, unassigned) [Example 43], the IC50 is 100 to 500 nM in test [1] and above 501 nM in test [2].
On the same counts, the results for `CN1CC[C@@](O)(c2cc([C@@H]3CCCN(c4ccc5ncnc(N)c5n4)C3)no2)C1=O` (single isomer, unassigned) [Example 202] are below 100 nM and above 501 nM.
Take `CN1CC[C@@](O)(c2cc(-c3cccc(-c4ccc5[nH]nc(N)c5n4)c3)no2)C1=O` [Example 4, (R)-3-(3-(3-(3-Amino-1H-pyrazolo[4,3-b]pyridin-5-yl)phenyl)isoxazol-5-yl)-3-hydroxy-1-methylpyrrolidin-2-one]: the IC50 in test [1] is below 100 nM; in test [2], above 501 nM.
On the same counts, the results for `CN1CC[C@@](O)(c2cc(-c3cc(F)cc(-c4cc(C5CC5)c(N)c(C(N)=O)n4)c3)no2)C1=O` [Example 243, (R)-3-Amino-4-cyclopropyl-6-(3-fluoro-5-(5-(3-hydroxy-1-methyl-2-oxopyrrolidin-3-yl)isoxazol-3-yl)phenyl)picolinamide] are below 100 nM and below 100 nM.
For `CN1CC[C@@](O)(c2cc(-c3cccc(-c4nc(C(N)=O)c5[nH]ccc5n4)c3)no2)C1=O` [Example 134, (R)-2-(3-(5-(3-Hydroxy-1-methyl-2-oxopyrrolidin-3-yl)isoxazol-3-yl)phenyl)-5H-pyrrolo[3,2-d]pyrimidine-4-carboxamide] the same measures were below 100 nM and below 100 nM.
For the molecule `CN1CC[C@@](O)(c2cc(-c3cccc(-c4cn5cccc(C(N)=O)c5n4)c3)no2)C1=O` [Example 92, (R)-2-(3-(5-(3-Hydroxy-1-methyl-2-oxopyrrolidin-3-yl)isoxazol-3-yl)phenyl) imidazo[1,2-a]pyridine-8-carboxamide], the values for the IC50 in test [1] and in test [2] were 100 to 500 nM and above 501 nM, respectively.
For `CN1CC[C@@](O)(c2cc(-c3cccc(-c4nc(C(N)=O)c(C5CCC5)s4)c3)no2)C1=O` [Example 221, (R)-5-Cyclobutyl-2-(3-(5-(3-hydroxy-1-methyl-2-oxopyrrolidin-3-yl)isoxazol-3-yl)phenyl)thiazole-4-carboxamide] the same measures were below 100 nM and above 501 nM.
For `Cc1ncc(C#N)cc1Nc1sc(-c2cccc(-c3cc([C@]4(O)CCN(C)C4=O)on3)c2)nc1C(N)=O` [Example 235, (R)-5-((5-Cyano-2-methylpyridin-3-yl)amino)-2-(3-(5-(3-hydroxy-1-methyl-2-oxopyrrolidin-3-yl)isoxazol-3-yl)phenyl)thiazole-4-carboxamide] the same measures were below 100 nM and below 100 nM.
`CN1CC[C@@](O)(c2cc(-c3cccc(-c4nc5c(c(C(N)=O)n4)C4CCC(C5)O4)c3)[nH]n2)C1=O` (stereo in doubt) [Example 174, (5R,8S)-2-(3-(5-((R)-3-Hydroxy-1-methyl-2-oxopyrrolidin-3-yl)-1H-pyrazol-3-yl)phenyl)-6,7,8,9-tetrahydro-5H-5,8-epoxycyclohepta[d]pyrimidine-4-carboxamide]: the IC50 in test [1] is 100 to 500 nM; in test [2], above 501 nM.
For `CN1CC[C@@](O)(c2cc(-c3cccc(-c4cnc(N)c(C(N)=O)n4)c3)no2)C1=O` [Example 110, (R)-3-Amino-6-(3-(5-(3-hydroxy-1-methyl-2-oxopyrrolidin-3-yl)isoxazol-3-yl)phenyl)pyrazine-2-carboxamide], the IC50 in test [1] and in test [2] was below 100 nM in each case.
Turning to `[2H]c1nc(N)c2nc(-c3cccc(-n4cc([C@@]5(O)CCN(C)C5=O)nn4)c3)ccc2n1` [Example 36, (S)-3-(1-(3-(4-Aminopyrido[3,2-d]pyrimidin-6-yl-2-d)phenyl)-1H-1,2,3-triazol-4-yl)-3-hydroxy-1-methylpyrrolidin-2-one], the IC50 was 100 to 500 nM in test [1] and above 501 nM in test [2].
In the case of `CN1CC[C@@](O)(c2cc(-c3ccc(F)c(-c4cc(C5CC5)c(N)c(C(N)=O)n4)c3)no2)C1=O` [Example 245, (R)-3-Amino-4-cyclopropyl-6-(2-fluoro-5-(5-(3-hydroxy-1-methyl-2-oxopyrrolidin-3-yl)isoxazol-3-yl)phenyl)picolinamide], the IC50 in test [1] and in test [2] was below 100 nM each time.
Turning to `CN1CC[C@@](O)(c2cc(-c3cccc(-c4ccc5ncn(C)c5c4)c3)no2)C1=O` [Example 62, (R)-3-Hydroxy-1-methyl-3-(3-(3-(1-methyl-1H-benzo[d]imidazol-6-yl)phenyl)isoxazol-5-yl)pyrrolidin-2-one], the half-inhibitory concentration (IC50) in test [1] and in test [2] was above 501 nM throughout.
For the molecule `COc1cc(-c2cccc(-c3cc([C@]4(O)CCN(C)C4=O)on3)c2)nc2c1cnn2C` [Example 48, (R)-3-Hydroxy-3-(3-(3-(4-methoxy-1-methyl-1H-pyrazolo[3,4-b]pyridin-6-yl)phenyl)isoxazol-5-yl)-1-methylpyrrolidin-2-one], the 50% inhibitory concentration (IC50) is below 100 nM in test [1] and above 501 nM in test [2].
For `COc1cc(-c2cc(-c3cc([C@]4(O)CCN(C)C4=O)on3)ccc2F)nc2c(N)ncnc12` [Example 120, (R)-3-(3-(3-(4-Amino-8-methoxypyrido[3,2-d]pyrimidin-6-yl)-4-fluorophenyl)isoxazol-5-yl)-3-hydroxy-1-methylpyrrolidin-2-one] the same measures were below 100 nM and above 501 nM.
Take `CN1CC[C@@](O)(c2cc(-c3cccc(-c4nccc(C(N)=O)n4)c3)no2)C1=O` [Example 146, (R)-2-(3-(5-(3-hydroxy-1-methyl-2-oxopyrrolidin-3-yl)isoxazol-3-yl)phenyl)pyrimidine-4-carboxamide]: the IC50 was below 100 nM in test [1] and above 501 nM in test [2].
Regarding `CN1CC[C@@](O)(c2cc(-c3cccc(-c4nc5c(c(C(N)=O)n4)CCCC5)c3)no2)C1=O` [Example 125, (R)-2-(3-(5-(3-Hydroxy-1-methyl-2-oxopyrrolidin-3-yl)isoxazol-3-yl)phenyl)-5,6,7,8-tetrahydroquinazoline-4-carboxamide], the half-inhibitory concentration (IC50) was below 100 nM in test [1] and above 501 nM in test [2].
As to `CN1CC[C@@](O)(c2cc(-c3cccc(-c4nc5c(c(C(N)=O)n4)[C@H]4CC[C@@H](C5)O4)c3)[nH]n2)C1=O` [Example 173, (5R,8S)-2-(3-(5-((R)-3-Hydroxy-1-methyl-2-oxopyrrolidin-3-yl)-1H-pyrazol-3-yl)phenyl)-6,7,8,9-tetrahydro-5H-5,8-epoxycyclohepta[d]pyrimidine-4-carboxamide], the IC50 in test [1] was below 100 nM; in test [2] it was above 501 nM.
Consider `CN1CC[C@@](O)(c2cc(-c3cccc(-c4cccc5c(=O)[nH]cnc45)c3)no2)C1=O` [Example 197, (R)-8-(3-(5-(3-Hydroxy-1-methyl-2-oxopyrrolidin-3-yl)isoxazol-3-yl)phenyl)quinazolin-4(3H)-one], for which the IC50 in test [1] and in test [2] was above 501 nM in each case.
Turning to `CN1CC[C@@](O)(c2cc(-c3cccc(-c4ncc(N[C@H]5CCOC5)c(C(N)=O)n4)c3)no2)C1=O` [Example 127, 2-(3-(5-((R)-3-hydroxy-1-methyl-2-oxopyrrolidin-3-yl)isoxazol-3-yl)phenyl)-5-(((S)-tetrahydrofuran-3-yl)amino)pyrimidine-4-carboxamide], the IC50 in test [1] and in test [2] was below 100 nM each time.
Regarding `CN1CC[C@@](O)(c2cc(-c3cccc(-c4sc(Br)nc4C(N)=O)c3)no2)C1=O` (single isomer, unassigned) [Example 214], the IC50 in test [1] and in test [2] was above 501 nM throughout.
For the molecule `COc1cc(-c2cc(-c3cc([C@]4(O)C[C@@H](C(F)(F)F)N(C)C4=O)on3)ccc2F)nc2c(N)ncnc12` [Example 116, (3R,5S)-3-(3-(3-(4-amino-8-methoxypyrido[3,2-d]pyrimidin-6-yl)-4-fluorophenyl)isoxazol-5-yl)-3-hydroxy-1-methyl-5-(trifluoromethyl)pyrrolidin-2-one], the IC50 is below 100 nM in test [1] and above 501 nM in test [2].
For `CN1CC[C@@](O)(c2cc(-c3cccc(-c4cn(C)c(C(N)=O)n4)c3)no2)C1=O` [Example 114, (R)-4-(3-(5-(3-Hydroxy-1-methyl-2-oxopyrrolidin-3-yl)isoxazol-3-yl)phenyl)-1-methyl-1H-imidazole-2-carboxamide] the same measures were below 100 nM and above 501 nM.

As a reminder, the IC50 is the midpoint of a concentration-inhibition curve.
